{"source": "ChEMBL document CHEMBL5360530", "about": "“Structure activity relationship (SAR) and anticancer activity of pyrrolidine derivatives: Recent developments and future prospects (A review)” (Eur J Med Chem, 2023)", "key": {"MCF7 [1]": {"system": "MCF7", "test": "Anticancer activity against human MCF7 cells assessed as cell growth inhibition measured after 48 hrs by MTT assay", "assay_type": "functional, cell-based", "conditions": "MCF7, 48 h"}, "A549 [2]": {"system": "A549", "test": "Anticancer activity against human A549 cells assessed as cell growth inhibition measured after 48 hrs by MTT assay", "assay_type": "functional, cell-based", "conditions": "A549, 48 h"}, "HCT-116": {"system": "HCT-116", "test": "Anticancer activity against human HCT-116 cells assessed as cell growth inhibition measured after 48 hrs by MTT assay", "assay_type": "functional, cell-based", "conditions": "HCT-116, 48 h"}, "HepG2 [3]": {"system": "HepG2", "test": "Anticancer activity against human HepG2 cells assessed as cell growth inhibition measured after 48 hrs by MTT assay", "assay_type": "functional, cell-based", "conditions": "HepG2, 48 h"}, "PC-3": {"system": "PC-3", "test": "Anticancer activity against human PC-3 cells assessed as cell growth inhibition measured after 48 hrs by MTT assay", "assay_type": "functional, cell-based", "conditions": "PC-3, 48 h"}, "MCF7 [4]": {"system": "MCF7", "test": "Anticancer activity against human MCF7 cells assessed as cell growth inhibition at 100 uM by MTT assay relative to control", "assay_type": "functional"}, "A549 [5]": {"system": "A549", "test": "Anticancer activity against human A549 cells assessed as cell growth inhibition at 100 uM by MTT assay relative to control", "assay_type": "functional"}, "HepG2 [6]": {"system": "HepG2", "test": "Anticancer activity against human HepG2 cells assessed as cell growth inhibition at 100 uM by MTT assay relative to control", "assay_type": "functional"}, "A-431": {"system": "A-431", "test": "Anticancer activity against human A-431 cells assessed as cell growth inhibition at 100 uM by MTT assay relative to control", "assay_type": "functional"}, "FaDu": {"system": "FaDu", "test": "Anticancer activity against human FaDu cells assessed as cell growth inhibition measured after 48 hrs", "assay_type": "functional, cell-based"}}, "note": "pIC50: −log10 of the molar value.", "data": [{"compound": "NC(=O)[C@H]1CCCN1CC(=O)Nc1cc2ccccc2oc1=O", "values": [{"measurement": "pIC50", "setting": "MCF7 [1]", "result": 6.45}, {"measurement": "pIC50", "setting": "A549 [2]", "result": 7.62}]}, {"compound": "O=C(/C=C/c1ccco1)[C@H]1[C@H](c2ccco2)[C@H]2CSCN2[C@]12C(=O)Nc1ccccc12", "values": [{"measurement": "pIC50", "setting": "HCT-116", "result": 5.80}, {"measurement": "pIC50", "setting": "HepG2 [3]", "result": "≤ 5.82"}, {"measurement": "pIC50", "setting": "PC-3", "result": "≤ 6.10"}]}, {"compound": "CCCCCC/C=C\\CCCCCCCC(=O)N1CCC[C@@H]1OP(=O)([O-])OCC[N+](C)(C)C", "values": [{"measurement": "inhibition at 100 µM", "setting": "MCF7 [4]", "result": 22.6, "unit": "%"}, {"measurement": "inhibition at 100 µM", "setting": "A549 [5]", "result": 4.7, "unit": "%"}, {"measurement": "inhibition at 100 µM", "setting": "HepG2 [6]", "result": 10.1, "unit": "%"}, {"measurement": "inhibition at 100 µM", "setting": "A-431", "result": 0.3, "unit": "%"}]}, {"compound": "O=C1Nc2ccccc2C12N[C@H](Cc1ccccc1)[C@@H](c1ccccc1Cl)[C@@]21CN(/C=C/c2ccccc2)C/C(=C\\c2ccccc2Cl)C1=O", "note": "(some centres not stated)", "values": [{"measurement": "pIC50", "setting": "FaDu; Homo sapiens, FaDu, 48 h", "result": "≤ 4.72"}]}, {"compound": "Cc1cc(=O)oc2cc(NC(=O)[C@@H]3CCCN3S(=O)(=O)c3ccccc3)ccc12", "values": [{"measurement": "pIC50", "setting": "MCF7 [1]", "result": 5.59}, {"measurement": "pIC50", "setting": "A549 [2]", "result": 4.74}]}, {"compound": "O=C(/C=C/c1c(Cl)cccc1Cl)[C@H]1[C@H](c2c(Cl)cccc2Cl)[C@H]2CSCN2[C@]12C(=O)Nc1ccccc12", "values": [{"measurement": "pIC50", "setting": "HCT-116", "result": 5.80}, {"measurement": "pIC50", "setting": "HepG2 [3]", "result": "≤ 5.82"}, {"measurement": "pIC50", "setting": "PC-3", "result": "≤ 6.10"}]}, {"compound": "O=C1Nc2ccccc2C12N[C@H](Cc1ccccc1)[C@@H](c1ccccc1)[C@@]21CN(/C=C/c2ccccc2)C/C(=C\\c2ccccc2)C1=O", "note": "(some centres not stated)", "values": [{"measurement": "pIC50", "setting": "FaDu; Homo sapiens, FaDu, 48 h", "result": 4.72}]}, {"compound": "CCCCCC/C=C\\CCCCCCCC(=O)N1CC[C@@H](OP(=O)([O-])OCC[N+](C)(C)C)C1", "values": [{"measurement": "inhibition at 100 µM", "setting": "MCF7 [4]", "result": 22.6, "unit": "%"}, {"measurement": "inhibition at 100 µM", "setting": "A549 [5]", "result": 4.7, "unit": "%"}, {"measurement": "inhibition at 100 µM", "setting": "HepG2 [6]", "result": 10.1, "unit": "%"}, {"measurement": "inhibition at 100 µM", "setting": "A-431", "result": 0.3, "unit": "%"}]}, {"compound": "O=C(/C=C/c1cccc(Br)c1)[C@H]1[C@H](c2cccc(Br)c2)[C@H]2CSCN2[C@]12C(=O)Nc1ccccc12", "values": [{"measurement": "pIC50", "setting": "HCT-116", "result": 5.80}, {"measurement": "pIC50", "setting": "HepG2 [3]", "result": "≤ 5.82"}, {"measurement": "pIC50", "setting": "PC-3", "result": "≤ 6.10"}]}, {"compound": "Cc1cc(=O)oc2cc(NC(=O)CN3CCC[C@@H]3C#N)ccc12", "values": [{"measurement": "pIC50", "setting": "MCF7 [1]", "result": 5.35}, {"measurement": "pIC50", "setting": "A549 [2]", "result": 5.40}]}, {"compound": "O=C1Nc2ccccc2C12N[C@H](Cc1ccccc1)[C@@H](c1ccccc1Br)[C@@]21CN(/C=C/c2ccccc2)C/C(=C\\c2ccccc2Br)C1=O", "note": "(some centres not stated)", "values": [{"measurement": "pIC50", "setting": "FaDu; Homo sapiens, FaDu, 48 h", "result": "≤ 4.72"}]}, {"compound": "Cc1cc(=O)oc2cc(NC(=O)CN3CCCC3)ccc12", "values": [{"measurement": "pIC50", "setting": "MCF7 [1]", "result": 5.32}, {"measurement": "pIC50", "setting": "A549 [2]", "result": 5.36}]}, {"compound": "O=C1Nc2ccccc2C12N[C@H](Cc1ccccc1)[C@@H](c1cccc([N+](=O)[O-])c1)[C@@]21CN(/C=C/c2ccccc2)C/C(=C\\c2cccc([N+](=O)[O-])c2)C1=O", "note": "(some centres not stated)", "values": [{"measurement": "pIC50", "setting": "FaDu; Homo sapiens, FaDu, 48 h", "result": "≤ 4.72"}]}, {"compound": "O=C(Nc1cc2ccccc2oc1=O)[C@@H]1CCCN1S(=O)(=O)c1ccccc1", "values": [{"measurement": "pIC50", "setting": "MCF7 [1]", "result": 5.03}, {"measurement": "pIC50", "setting": "A549 [2]", "result": 5.13}]}, {"compound": "COc1cccc(/C=C2\\CN(/C=C/c3ccccc3)C[C@]3(C2=O)[C@H](c2cccc(OC)c2)[C@@H](Cc2ccccc2)NC32C(=O)Nc3ccccc32)c1", "note": "(some centres not stated)", "values": [{"measurement": "pIC50", "setting": "FaDu; Homo sapiens, FaDu, 48 h", "result": "≤ 4.72"}]}, {"compound": "CCCCCCCCCCCCCCCC(=O)N1CCC[C@@H]1OP(=O)([O-])OCC[N+](C)(C)C", "values": [{"measurement": "inhibition at 100 µM", "setting": "MCF7 [4]", "result": 22.6, "unit": "%"}, {"measurement": "inhibition at 100 µM", "setting": "A549 [5]", "result": 4.7, "unit": "%"}, {"measurement": "inhibition at 100 µM", "setting": "HepG2 [6]", "result": 10.1, "unit": "%"}, {"measurement": "inhibition at 100 µM", "setting": "A-431", "result": 0.3, "unit": "%"}]}, {"compound": "O=C(N[C@H]1C[C@@H](C(=O)NO)N(S(=O)(=O)c2ccc(Oc3ccccc3)cc2)C1)c1cccnc1", "values": [{"measurement": "pIC50", "setting": "A549 [2]", "result": 5.30}]}, {"compound": "O=C1Nc2ccccc2C12N[C@H](Cc1ccccc1)[C@@H](c1ccc(Cl)cc1)[C@@]21CN(/C=C/c2ccccc2)C/C(=C\\c2ccc(Cl)cc2)C1=O", "note": "(some centres not stated)", "values": [{"measurement": "pIC50", "setting": "FaDu; Homo sapiens, FaDu, 48 h", "result": "≤ 4.72"}]}, {"compound": "Cc1ccccc1/C=C1\\CN(/C=C/c2ccccc2)C[C@]2(C1=O)[C@H](c1ccccc1C)[C@@H](Cc1ccccc1)NC21C(=O)Nc2ccccc21", "note": "(some centres not stated)", "values": [{"measurement": "pIC50", "setting": "FaDu; Homo sapiens, FaDu, 48 h", "result": 4.63}]}, {"compound": "CCCCCCCC/C=C\\CC(=O)N1CC[C@@H](COP(=O)([O-])OCC[N+](C)(C)C)C1", "values": [{"measurement": "inhibition at 100 µM", "setting": "MCF7 [4]", "result": 92.9, "unit": "%"}, {"measurement": "inhibition at 100 µM", "setting": "A549 [5]", "result": 58.7, "unit": "%"}, {"measurement": "inhibition at 100 µM", "setting": "HepG2 [6]", "result": 72.8, "unit": "%"}, {"measurement": "inhibition at 100 µM", "setting": "A-431", "result": 67.3, "unit": "%"}]}, {"compound": "CCOC(=O)[C@H]1CCCN1CC(=O)Nc1cc2ccccc2oc1=O", "values": [{"measurement": "pIC50", "setting": "MCF7 [1]", "result": 5.03}, {"measurement": "pIC50", "setting": "A549 [2]", "result": 5.51}]}, {"compound": "O=C(N[C@H]1C[C@@H](C(=O)NO)N(S(=O)(=O)c2ccc(Oc3ccccc3)cc2)C1)c1cc(Br)cnc1Cl", "values": [{"measurement": "pIC50", "setting": "A549 [2]", "result": 5.30}]}, {"compound": "O=C(/C=C/c1ccc(Br)cc1)[C@H]1[C@H](c2ccc(Br)cc2)[C@H]2CSCN2[C@]12C(=O)Nc1ccccc12", "values": [{"measurement": "pIC50", "setting": "HCT-116", "result": 5.52}, {"measurement": "pIC50", "setting": "HepG2 [3]", "result": 6.10}, {"measurement": "pIC50", "setting": "PC-3", "result": "≤ 6.10"}]}, {"compound": "O=C(Nc1cc2ccccc2oc1=O)[C@@H]1CCCN1S(=O)(=O)c1ccc(Cl)cc1", "values": [{"measurement": "pIC50", "setting": "MCF7 [1]", "result": 5.36}, {"measurement": "pIC50", "setting": "A549 [2]", "result": 5.42}]}, {"compound": "CCCCCCCCCCCCCCCC(=O)N1CCC[C@H]1OP(=O)([O-])OCC[N+](C)(C)C", "values": [{"measurement": "inhibition at 100 µM", "setting": "MCF7 [4]", "result": 22.6, "unit": "%"}, {"measurement": "inhibition at 100 µM", "setting": "A549 [5]", "result": 71.6, "unit": "%"}, {"measurement": "inhibition at 100 µM", "setting": "HepG2 [6]", "result": 10.1, "unit": "%"}, {"measurement": "inhibition at 100 µM", "setting": "A-431", "result": 0.3, "unit": "%"}]}, {"compound": "COc1ccc(/C=C2\\CN(/C=C/c3ccccc3)C[C@]3(C2=O)[C@H](c2ccc(OC)cc2)[C@@H](Cc2ccccc2)NC32C(=O)Nc3ccccc32)cc1", "note": "(some centres not stated)", "values": [{"measurement": "pIC50", "setting": "FaDu; Homo sapiens, FaDu, 48 h", "result": "≤ 4.72"}]}, {"compound": "BLEOMYCIN", "values": [{"measurement": "pIC50", "setting": "FaDu; fadu", "result": 4.51}]}]}
